Among the data in patent US20100317624A1 (ASTRAZENECA AB, priority 2009, published 2010) are inhibition values, retold here.

Each structure is given as a SMILES string.

Sequence of S. aureus GyrB ATPase (P0AES4 whole entry): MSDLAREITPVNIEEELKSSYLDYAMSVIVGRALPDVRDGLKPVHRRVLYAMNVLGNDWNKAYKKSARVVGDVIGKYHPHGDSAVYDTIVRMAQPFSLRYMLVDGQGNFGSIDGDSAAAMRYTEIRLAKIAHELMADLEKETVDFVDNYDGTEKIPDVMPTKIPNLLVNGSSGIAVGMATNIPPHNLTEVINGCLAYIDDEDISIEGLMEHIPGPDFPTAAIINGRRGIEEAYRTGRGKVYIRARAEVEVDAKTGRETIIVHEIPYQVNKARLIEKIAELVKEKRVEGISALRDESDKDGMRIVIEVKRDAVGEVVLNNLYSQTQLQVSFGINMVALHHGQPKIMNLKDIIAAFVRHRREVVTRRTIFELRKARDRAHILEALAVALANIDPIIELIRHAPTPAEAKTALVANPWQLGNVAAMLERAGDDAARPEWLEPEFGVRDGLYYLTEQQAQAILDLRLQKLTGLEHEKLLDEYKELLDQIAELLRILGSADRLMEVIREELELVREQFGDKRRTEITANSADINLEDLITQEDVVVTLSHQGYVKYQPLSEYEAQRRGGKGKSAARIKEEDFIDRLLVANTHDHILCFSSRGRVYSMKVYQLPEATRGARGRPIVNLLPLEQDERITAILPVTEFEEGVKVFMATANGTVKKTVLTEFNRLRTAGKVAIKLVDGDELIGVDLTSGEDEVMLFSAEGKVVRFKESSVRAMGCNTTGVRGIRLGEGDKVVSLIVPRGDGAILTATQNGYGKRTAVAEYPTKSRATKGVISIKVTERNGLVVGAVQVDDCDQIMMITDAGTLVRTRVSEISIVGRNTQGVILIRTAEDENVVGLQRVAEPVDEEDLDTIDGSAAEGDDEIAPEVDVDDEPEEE
Sequence of S. aureus GyrB ATPase (P0A0K8 whole entry): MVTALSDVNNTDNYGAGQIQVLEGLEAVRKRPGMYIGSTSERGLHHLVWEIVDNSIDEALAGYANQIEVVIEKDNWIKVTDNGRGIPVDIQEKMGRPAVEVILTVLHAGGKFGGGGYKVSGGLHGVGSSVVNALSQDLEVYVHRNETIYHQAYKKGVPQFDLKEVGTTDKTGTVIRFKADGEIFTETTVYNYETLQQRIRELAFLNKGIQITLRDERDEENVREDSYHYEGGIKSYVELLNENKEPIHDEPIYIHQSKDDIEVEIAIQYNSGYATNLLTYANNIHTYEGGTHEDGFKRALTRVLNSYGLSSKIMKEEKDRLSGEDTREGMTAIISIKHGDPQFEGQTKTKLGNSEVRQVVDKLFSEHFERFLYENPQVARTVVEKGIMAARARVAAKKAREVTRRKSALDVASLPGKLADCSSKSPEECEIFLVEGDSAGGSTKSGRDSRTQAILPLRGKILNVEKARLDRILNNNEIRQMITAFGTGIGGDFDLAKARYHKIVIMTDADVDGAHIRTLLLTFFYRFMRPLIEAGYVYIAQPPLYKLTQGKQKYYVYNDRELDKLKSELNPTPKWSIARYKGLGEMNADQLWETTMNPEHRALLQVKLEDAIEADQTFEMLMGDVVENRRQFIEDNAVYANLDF

For the test, the target named is S. aureus GyrB ATPase (Staphylococcus aureus, UniProt P0A0K8). The experiment in a line: S. aureus GyrB ATPase inhibition (ammonium molybdate/malachite green phosphate detection). It is filed as biochemical. Conditions: compound at 1 μM; inhibition of S. aureus GyrB ATPase; read-out: Percent Inhibition (1 μM). How it is done:
S. aureus GyrB ATPase Inhibition Activity: Compounds may be tested for inhibition of S. aureus GyrB ATPase activity using an ammonium molybdate/malachite green-based phosphate detection assay (Lanzetta, P. A., L. J. Alvarez, P. S. Reinach, and O. A. Candia, 1979, 100: 95-97). Assays can be performed in multiwell plates in 30 μl reactions containing: 50 mM Hepes buffer pH 7.5, 75 mM ammonium acetate, 8.0 mM magnesium chloride, 0.5 mM ethylenediaminetetraacetic acid, 5% glycerol, 1.0 mM 1,4-Dithio-DL-threitol, 200 nM bovine serum albumin, 1.0 μg/ml sheared salmon sperm DNA, 250 pM E. coli GyrA, 250 pM S. aureus GyrB, 250 μM ATP, and compound in dimethylsulfoxide. Reactions can be quenched with 30 μl of ammonium molybdate/malachite green detection reagent containing 1.2 mM malachite green hydrochloride, 8.5 mM ammonium molybdate tetrahydrate, and 1 M hydrochloric acid. Plates can be read in an absorbance plate reader at 650 nm and percent inhibition values can be calculated using dimethylsulfoxide (2%)-containing reactions as 0% inhibition and EDTA-containing ([…]) reactions as 100% inhibition controls. An IC50 measurement of compound potency for each compound can be determined from reactions performed in the presence of 10 different compound concentrations.
In the case of `CCNC(=O)Nc1cc(-c2nc(C(F)(F)F)cs2)c(-c2cc3c(=O)c(C(=O)O)cn(CCN(C)C)c3cc2OCCN(C)C)cn1` [Example 26, 7-(2-(dimethylamino)ethoxy)-1-(2-(dimethylamino)ethyl)-6-(6-(3-ethylureido)-4-(4-(trifluoromethyl)thiazol-2-yl)pyridin-3-yl)-4-oxo-1,4-dihydroquinoline-3-carboxylic acid], the inhibition (usually the drop in the measured response relative to a control, in per cent) at 1 µM was found to be 108%. Next, `CCNC(=O)Nc1cc(-c2nc(C(F)(F)F)cs2)c(-c2cc3c(=O)c(C(=O)O)cn([C@H](CO)C(C)(C)C)c3cc2F)cn1` [Example 27, 6-(6-(3-ethylureido)-4-(4-(trifluoromethyl)thiazol-2-yl)pyridin-3-yl)-7-fluoro-1-((S)-1-hydroxy-3,3-dimethylbutan-2-yl)-4-oxo-1,4-dihydroquinoline-3-carboxylic acid]: 125%; `CCNC(=O)Nc1cc(-c2nc(C(F)(F)F)cs2)c(-c2cc3c(=O)c(C(=O)O)cn([C@H](CO)C(C)C)c3cc2OC)cn1` [Example 28, 6-(6-(3-ethylureido)-4-(4-(trifluoromethyl)thiazol-2-yl)pyridin-3-yl)-1-((S)-1-hydroxy-3-methylbutan-2-yl)-7-methoxy-4-oxo-1,4-dihydroquinoline-3-carboxylic acid]: 104%; `CCNC(=O)Nc1cc(-c2nc(C(F)(F)F)cs2)c(-c2ccc3c(c2)c(=O)c(C(=O)N(C)C)cn3CCN(C)C)cn1` [Example 29, 1-[2-(Dimethylamino)ethyl]-6-{6-[(ethylcarbamoyl)amino]-4-[4-(trifluoromethyl)-1,3-thiazol-2-yl]pyridin-3-yl}-N,N-dimethyl-4-oxo-1,4-dihydroquinoline-3-carboxamide]: 93%. Regarding `CCNC(=O)Nc1cc(-c2nc(C(F)(F)F)cs2)c(-c2ccc3c(c2)c(=O)c(C(=O)N(C)C)cn3CCN2CCN(C)CC2)cn1` [Example 30, 6-{6-[(Ethylcarbamoyl)amino]-4-[4-(trifluoromethyl)-1,3-thiazol-2-yl]pyridin-3-yl}-N,N-dimethyl-1-[2-(4-methylpiperazin-1-yl)ethyl]-4-oxo-1,4-dihydroquinoline-3-carboxamide], the inhibition at 1 µM was determined as 98%. In the case of `CCNC(=O)Nc1cc(-c2nc(C(F)(F)F)cs2)c(-c2ccc3c(c2)c(=O)c(C(=O)N(C)C)cn3CC2CN3CCN2CC3)cn1` (stereo not shown) [Example 31, 1-(1,4-diazabicyclo[2.2.2]oct-2-ylmethyl)-6-{6-[(ethylcarbamoyl)amino]-4-[4-(trifluoromethyl)-1,3-thiazol-2-yl]pyridin-3-yl}-N,N-dimethyl-4-oxo-1,4-dihydroquinoline-3-carboxamide], the inhibition at 1 µM came out at 114%.

Turning to `CCNC(=O)Nc1cc(-c2nc(C(F)(F)F)cs2)c(-c2ccc3c(c2)c(=O)c(C(=O)N(C)C)cn3C[C@@H]2CCCNC2)cn1` [Example 32, 6-{6-[(Ethylcarbamoyl)amino]-4-[4-(trifluoromethyl)-1,3-thiazol-2-yl]pyridin-3-yl}-N,N-dimethyl-4-oxo-1-[(3R)-piperidin-3-ylmethyl]-1,4-dihydroquinoline-3-carboxamide], the inhibition at 1 µM turned out to be 104%. `CCNC(=O)Nc1cc(-c2nc(C(F)(F)F)cs2)c(-c2ccc3c(c2)c(=O)c(C(=O)N(C)C)cn3C[C@H]2CCCNC2)cn1` [Example 33, 6-{6-[(Ethylcarbamoyl)amino]-4-[4-(trifluoromethyl)-1,3-thiazol-2-yl]pyridin-3-yl}-N,N-dimethyl-4-oxo-1-[(3S)-piperidin-3-ylmethyl]-1,4-dihydroquinoline-3-carboxamide]: the inhibition at 1 µM is 104%. Next, `CCNC(=O)Nc1cc(-c2nc(C(F)(F)F)cs2)c(-c2ccc3c(c2)c(=O)c(C(=O)O)cn3CCN)cn1` [Example 34, 1-(2-Aminoethyl)-6-{6-[(ethylcarbamoyl)amino]-4-[4-(trifluoromethyl)-1,3-thiazol-2-yl]pyridin-3-yl}-4-oxo-1,4-dihydroquinoline-3-carboxylic acid]: 112%; `CCNC(=O)Nc1cc(-c2nc(C(F)(F)F)cs2)c(-c2ccc3c(c2)c(=O)c(C(=O)O)cn3[C@H]2[C@@H]3CN(C)C[C@@H]32)cn1` [Example 35, 6-{6-[(ethylcarbamoyl)amino]-4-[4-(trifluoromethyl)-1,3-thiazol-2-yl]pyridin-3-yl}-1-[(1R,5S,6s)-3-methyl-3-azabicyclo[3.1.0]hex-6-yl]-4-oxo-1,4-dihydroquinoline-3-carboxylic acid]: 108%. Turning to `CCNC(=O)Nc1cc(-c2nc(C(F)(F)F)cs2)c(-c2ccc3c(c2)c(=O)c(C(=O)O)cn3C[C@@H]2CCN(CCN3CCN(C)CC3)C2)cn1` [Example 36, (R)-6-(6-(3-ethylureido)-4-(4-(trifluoromethyl)thiazol-2-yl)pyridin-3-yl)-1-((1-(2-(4-methylpiperazin-1-yl)ethyl)pyrrolidin-3-yl)methyl)-4-oxo-1,4-dihydroquinoline-3-carboxylic acid], the inhibition at 1 µM was 112%. With `CCNC(=O)Nc1cc(-c2nc(C(F)(F)F)cs2)c(-c2ccc3c(c2)c(=O)c(C(=O)O)cn3C[C@H]2CCN(CCN3CCN(C)CC3)C2)cn1` [Example 37, (S)-6-(6-(3-ethylureido)-4-(4-(trifluoromethyl)thiazol-2-yl)pyridin-3-yl)-1-((1-(2-(4-methylpiperazin-1-yl)ethyl)pyrrolidin-3-yl)methyl)-4-oxo-1,4-dihydroquinoline-3-carboxylic acid], the inhibition at 1 µM turned out to be 100%.

As for `CCNC(=O)Nc1cc(-c2nc(C(F)(F)F)cs2)c(-c2ccc3c(c2)c(=O)c(C(=O)OCOC(C)=O)cn3C(COC)COC)cn1` [Example 38, Acetoxymethyl 1-(1,3-dimethoxypropan-2-yl)-6-(6-(3-ethylureido)-4-(4-(trifluoromethyl)thiazol-2-yl)pyridin-3-yl)-4-oxo-1,4-dihydroquinoline-3-carboxylate], the inhibition at 1 µM worked out at 105%. As to `CCNC(=O)Nc1cc(-c2nc(C(F)(F)F)cs2)c(-c2ccc3c(c2)c(=O)c(C(=O)OCOC(=O)C(C)(C)C)cn3C(COC)COC)cn1` [Example 39, Pivaloyloxymethyl 1-(1,3-dimethoxypropan-2-yl)-6-(6-(3-ethylureido)-4-(4-(trifluoromethyl)thiazol-2-yl)pyridin-3-yl)-4-oxo-1,4-dihydroquinoline-3-carboxylate], the inhibition at 1 µM was determined as 102%. `CCNC(=O)Nc1cc(-c2nc(C(F)(F)F)cs2)c(-c2ccc3c(c2)c(=O)c(C(=O)OCc2oc(=O)oc2C)cn3C(COC)COC)cn1` [Example 40, (5-methyl-2-oxo-1,3-dioxo1-4-yl)methyl 1-(1,3-dimethoxypropan-2-yl)-6-(6-(3-ethylureido)-4-(4-(trifluoromethyl)thiazol-2-yl)pyridin-3-yl)-4-oxo-1,4-dihydroquinoline-3-carboxylate]: the inhibition at 1 µM came to 97%. Under `CCNC(=O)Nc1cc(-c2nc(C(F)(F)F)cs2)c(-c2ccc3c(c2)c(=O)c(C(=O)OCCOC(C)=O)cn3C(COC)COC)cn1` [Example 41, 2-acetoxyethyl 1-(1,3-dimethoxypropan-2-yl)-6-(6-(3-ethylureido)-4-(4-(trifluoromethyl)thiazol-2-yl)pyridin-3-yl)-4-oxo-1,4-dihydroquinoline-3-carboxylate] stands 107%.
